# Laboratory results taken from patent US10829487B2, “Benzylamino substituted pyridopyrimidinones and derivatives as SOS1 inhibitors” (Boehringer Ingelheim International GmbH, priority 2017, dated 2020).
# Experiments:
# [1] = molecular target: protein-protein interaction between SOS1 and KRAS G12D (Homo sapiens (Human), UniProt Q07889); experiment: KRAS::SOS1 AlphaScreen Binding Assay
# Excerpt: KRAS::SOS1 AlphaScreen Binding Assay
# Low IC50 values are indicative of high potency of the SOS1 inhibitor compound in this assay setting:
# Reagents: • GST-tagged SOS1 (564_1049_GST_TEV_ECO) produced in-house • GST-TEV-SOS1 (564-1049) is purchased from Viva Biotech Ltd. • 6×His-Tev-K-RasG12D(1-169)Avi is purchased from Xtal BioStructures, Inc. (Lot # X129-110) • GDP (Sigma Cat No G7127) • AlphaLISA Glutathione Acceptor Beads (PerkinElmer, Cat No AL109) • AlphaScreen Streptavidin Donor Beads (PerkinElmer Cat No 6760002) • Assay plates: Proxiplate-384 PLUS, white (PerkinElmer, Cat No 6008289)
# 10 nM (final assay concentration) KRAS G12D, 10 μM (final assay concentration) GDP and 5 nM (final assay concentration) GST-SOS1 are mixed in assay buffer prior to use and kept at room temperature.
# AlphaLISA Glutathione Acceptor Beads and AlphaScreen Streptavidin Donor Beads are mixed in assay buffer at a concentration of 10 μg/mL (final assay concentration) each prior to use and kept at room temperature.
# Compounds are diluted to a final start concentration of 100 μM and are tested in duplicate. Assay-ready plates (ARPs) are generated using an Access Labcyte Workstation with a Labcyte Echo 550 or 555 accoustic dispenser. For compound a start concentration of 100 μM, 150 nL of compound solution is transferred per well in 11 concentrations in duplicate with serial 1:5 dilutions.
# The assay is run using a fully automated robotic system in a darkened room below 100 Lux. 10 μL of KRAS::SOS1 GDP mix is added into columns 1-24 to the 150 nL of compound solution (final dilution in the assay 1:100, final DMSO concentration 1%).
# After a 30 minute incubation time 5 μL of bead mix is added into columns 1-23. Plates are kept at room temperature in a darkened incubator. After a further 60 minute incubation, the signal is measured using a PerkinElmer Envision HTS Multilabel Reader using the AlphaScreen specifications from PerkinElmer. Each plate contains the following controls: • diluted DMSO+KRAS::SOS1 GDP mix+bead mix • diluted DMSO+KRAS::SOS1 GDP mix
# IC50 values are calculated and analyzed using a 4 parametric logistic model.
# [2] = Metabolic (microsomal) stability assay, rat liver microsomes (RLM); type: in vitro ADME; conditions: 1 μM test compound, 37° C.
# Experimental: (§1) Metabolic (Microsomal) Stability Assay: The metabolic degradation of the test compound is assayed at 37° C. with pooled liver microsomes (mouse (MLM), rat (RLM) or human (HLM)). The final incubation volume of 74 μL per time point contains TRIS buffer (pH 7.5; 0.1 M), magnesium chloride (6.5 mM), microsomal protein (0.5 mg/mL for mouse/rat, 1 mg/mL for human specimens) and the test compound at a final concentration of 1 μM. Following a short preincubation period at 37° C., the reactions are initiated by addition of 8 μL beta-nicotinamide adenine dinucleotide phosphate, reduced form (NADPH, 10 mM) and terminated by transfering an aliquot into solvent after different time points. Additionally, the NADPH-independent degradation is monitored in incubations without NADPH, terminated at the last time point by addition of acetonitrile. The quenched incubations are pelleted by centrifugation (1811 g, 5 min). An aliquot of the supernatant is assayed by LC-MS/MS for the amount of parent compound. In vitro intrinsic clearance (CLint, in vitro) is calculated from the time course of the disappearance of the test drug during the microsomal incubation. Each plot is fitted to the first-order elimination rate constant as C(t)=C0*exp(−ke*t), where C(t) and C0 are the concentration of unchanged test drug at incubation time t and that at preincubation and ke is the disappearance rate constant of the unchanged drug. Subsequently, CLint, in vitro (μL min^−1·amount protein) values are converted to CLint, in vitro (mL min^−1·kg^−1) for the whole body. CLint, in vitro data are scaled up using physiological parameters. For better across species comparison the predicted clearance is expressed as percent of the liver blood flow [% QH] in the individual species. In general, high stability (corresponding to low % QH) of the compounds across species is desired.
# [3] = Metabolic (microsomal) stability assay, human liver microsomes (HLM); type: in vitro ADME; conditions: 1 μM test compound, 37° C.
# Experimental: as §1
# [4] = Metabolic (microsomal) stability assay, mouse liver microsomes (MLM); type: in vitro ADME; conditions: 1 μM test compound, 37° C.
# Experimental: as §1
# [5] = tested on: ERK phosphorylation in DLD-1 cells (KRAS G13D); experiment: ERK Phosphorylation Assay (AlphaLISA SureFire Ultra p-ERK1/2); type: cell-based; conditions: Homo sapiens, 1 h compound, EGF 50 ng/mL 10 min, read-out: pERK
# Experimental: ERK Phosphorylation Assay
# Low IC50 values are indicative of high potency of the SOS1 inhibitor compounds in this assay setting.
# ERK phosphorylation assays are performed using the following human cell lines: DLD-1 (ATCC CCL-221): human colon cancer with a KRAS G13D mutation;
# DLD-1 cells (ATCC CCL-221) are seeded at 50,000 cells per well in/60 μL of RPMI with 10% FBS, non-essential amino acids, pyruvate and glutamax in Greiner TC 384 plates. The cells are incubated for 1 h at room temperature and then incubated overnight in an incubator at 37° C. and 5% CO2 in a humidified atmosphere. 60 nL compound solution (10 mM DMSO stock solution) is then added using a Labcyte Echo 550 device. After a 1 h incubation in the aforementioned incubator, 3 μL Epidermal Growth Factor (EGF, final concentration 50 ng/mL) is added. 10 minutes later the medium is removed, and the cells lysed by addition of 20 μL of 1.6-fold lysis buffer from the AlphaLISA SureFire Ultra pERK1/2 (Thr202/Tyr204) Assay Kit with added protease inhibitors, 100 nM trametinib+100 nM staurosporine. After 20 minutes of incubation at room temperature with shaking, 6 μL of each lysate sample is transferred to a 384-well Proxiplate and analyzed for pERK (Thr202/Tyr204) with the AlphaLISA SureFire Ultra pERK1/2 (Thr202/Tyr204) Assay Kit. 3 μL Acceptor Mix and 3 μL Donor Mix are added under subdued light and incubated for 2 h at room temperature in the dark, before the signal is measured on a Perkin Elmer Envision plate reader using 384 AlphaScreen settings for Proxiplates. Data are fitted by iterative calculation with variable hill slope. The sigmoidal curve slope is fitted using a default fitting curve to ascertain IC50 values.
# [6] = molecular target: CYP3A4 (Homo sapiens (Human), UniProt P08684); experiment: Time dependent inhibition of CYP3A4 assay (TDI 3A4); type: in vitro ADME; conditions: hydroxy-midazolam formation after 30 min relative to 0 min preincubation; 25 uM compound; human liver microsomes; midazolam substrate
# Chain of CYP3A4 (P08684 whole entry): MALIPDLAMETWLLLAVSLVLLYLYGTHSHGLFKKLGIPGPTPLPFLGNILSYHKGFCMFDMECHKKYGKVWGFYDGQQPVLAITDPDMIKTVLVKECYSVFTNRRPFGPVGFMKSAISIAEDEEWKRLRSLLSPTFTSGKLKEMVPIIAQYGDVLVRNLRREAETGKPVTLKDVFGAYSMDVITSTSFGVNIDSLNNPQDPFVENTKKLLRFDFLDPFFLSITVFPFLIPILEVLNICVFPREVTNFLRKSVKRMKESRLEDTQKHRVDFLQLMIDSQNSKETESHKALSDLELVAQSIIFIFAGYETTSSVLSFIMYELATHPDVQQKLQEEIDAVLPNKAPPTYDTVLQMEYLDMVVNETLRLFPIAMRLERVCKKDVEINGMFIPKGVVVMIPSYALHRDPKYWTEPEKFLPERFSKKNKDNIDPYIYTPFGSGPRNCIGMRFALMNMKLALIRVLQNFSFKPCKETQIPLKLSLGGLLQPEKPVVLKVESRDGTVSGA
# Experimental: Time Dependent Inhibition of CYP3A4 Assay (TDI 3A4):
# After preincubation, the incubate is diluted 1:10 and the substrate midazolam is added for the main incubation (15 min). The main incubation is quenched with acetonitrile and the formation of hydroxy-midazolam is quantified via LC/MS-MS. The formation of hydroxy-midazolam from the 30 min preincubation relative to the formation from the 0 min preincubation is used as a readout. Values of less than 100% mean that the substrate midazolam is metabolized to a lower extend upon 30 min preincubation compared to 0 min preincubation. In general low effects upon 30 min preincubation are desired (corresponding to values close to 100%)
# [7] = Table 20, KRAS::SOS1 AlphaScreen (SOS1 / KRAS G12D)
# [8] = KRAS G12D::SOS1 AlphaScreen, measured without EDTA unless marked with an asterisk
# Chain of protein-protein interaction between SOS1 and KRAS G12D (Q07889 564-1049, stated change not applied): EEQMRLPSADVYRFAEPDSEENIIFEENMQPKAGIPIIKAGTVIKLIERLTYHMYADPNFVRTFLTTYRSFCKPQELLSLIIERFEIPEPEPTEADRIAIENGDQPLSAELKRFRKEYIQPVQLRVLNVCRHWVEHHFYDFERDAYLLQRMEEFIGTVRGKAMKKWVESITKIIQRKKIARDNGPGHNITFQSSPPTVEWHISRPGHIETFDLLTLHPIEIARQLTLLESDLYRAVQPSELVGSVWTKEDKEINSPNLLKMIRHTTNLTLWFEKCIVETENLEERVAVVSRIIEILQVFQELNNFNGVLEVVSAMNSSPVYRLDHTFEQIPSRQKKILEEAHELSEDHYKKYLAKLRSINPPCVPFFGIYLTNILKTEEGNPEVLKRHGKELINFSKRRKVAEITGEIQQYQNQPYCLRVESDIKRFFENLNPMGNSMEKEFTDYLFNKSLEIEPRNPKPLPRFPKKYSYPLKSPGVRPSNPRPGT
"IC50 [1, 7]",RLM [% QH] [2],HLM [% QH] [3],MLM [% QH] [4],IC50 [5],"IC50 [1, 8]",TDI 3A4 [%] [6],Compound
4 nM,<23 % QH,36 % QH,59 % QH,79 nM,,,Cc1nc(N[C@H](C)c2cccc3c2OCC3(F)F)c2cn(C3(C)CC3)c(=O)cc2n1 [I-101]
,,,,,23 nM,97%,Cc1nc(N[C@H](C)c2cccc(C(F)(F)F)c2C)c2cn(C3(c4ccccc4)CCOCC3)c(=O)cc2n1 [I-127]
4 nM,,,,74 nM,,84%,Cc1nc(N[C@H](C)c2cccc(C(C)(F)F)c2F)c2cn(C3(CF)CC3)c(=O)cc2n1 [I-53]
3 nM,,,,,,93%,Cc1nc(N[C@H](C)c2cccc(C(F)F)c2C)c2cn(C3(C)CC3)c(=O)cc2n1 [I-20]
38 nM,<23 % QH,<24 % QH,88 % QH,,,,Cc1nc(N[C@H](C)c2cccc(C(F)(F)F)c2)c2cn(C(C)C)c(=O)cc2n1 [I-27]
2 nM,<23 % QH,24 % QH,<24 % QH,,,,Cc1nc(N[C@H](C)c2cccc(C(F)(F)C(C)(C)O)c2F)c2cn(C3(C)CC3)c(=O)c(F)c2n1 [I-88]
,,,,,15 nM,82%,Cc1c(=O)n(C2(C(F)F)CC2)cc2c(N[C@H](C)c3cccc(C(F)F)c3F)ncnc12 [I-163]
4 nM,<23 % QH,<24 % QH,<24 % QH,,,,Cc1nc(N[C@H](C)c2cccc(C(F)(F)C(C)(C)O)c2F)c2cn(C34CC(C3)C4)c(=O)c(F)c2n1 [I-90]
14 nM,<23 % QH,<24 % QH,<24 % QH,81 nM,,,Cc1nc(N[C@H](C)c2cccc(C(F)(F)F)c2)c2cn(C3(C(F)F)CC3)c(=O)cc2n1 [I-97]
8 nM,<23 % QH,<24 % QH,46 % QH,,,,Cc1nc(N[C@H](C)c2cccc(C(F)F)c2F)c2cn(C3(C(F)(F)F)CC3)c(=O)cc2n1 [I-4]
21 nM,56 % QH,27 % QH,26 % QH,,,,Cc1nc(N[C@H](C)c2cccc(C(F)F)c2F)c2cn(C3(C)CC(F)(F)C3)c(=O)cc2n1 [I-14]
2 nM,,,,,,83%,Cc1nc(N[C@H](C)c2cccc(C(F)(F)C(C)(C)O)c2F)c2cn(C3(C(F)F)CC3)c(=O)c(F)c2n1 [I-89]
15 nM,42 % QH,<24 % QH,<24 % QH,,,,Cc1nc(N[C@H](C)c2cccc(C(F)F)c2F)c2cn([C@H]3C[C@@H]3C(F)F)c(=O)c(F)c2n1 [I-83]
,<23 % QH,<24 % QH,54 % QH,,17 nM,,Cc1c(=O)n([C@H]2C[C@@H]2C(F)F)cc2c(N[C@H](C)c3cccc(C(F)F)c3F)ncnc12 [I-165]
9 nM,<23 % QH,24 % QH,55 % QH,,,,Cc1nc(N[C@H](C)c2cccc(C(F)F)c2F)c2cn([C@]3(C(F)(F)F)CCOC3)c(=O)c(F)c2n1 [I-85]
6 nM,,,,,,87%,Cc1nc(N[C@H](C)c2cccc(C(F)F)c2C)c2cn(C3CCC3)c(=O)cc2n1 [I-22]
7 nM,<23 % QH,<24 % QH,30 % QH,,,,C[C@@H](Nc1ncnc2c(F)c(=O)n(C3(C(F)F)CC3)cc12)c1cccc(C(F)F)c1F [I-96]
,<23 % QH,31 % QH,44 % QH,,12 nM,,Cc1c(=O)n(C2(C)CC2)cc2c(N[C@H](C)c3cccc(C(F)F)c3F)ncnc12 [I-161]
11 nM,52 % QH,<24 % QH,<24 % QH,,,,Cc1nc(N[C@H](C)c2cccc(C(F)F)c2F)c2cn(C3CC(F)(F)C3)c(=O)cc2n1 [I-13]
,<23 % QH,<24 % QH,53 % QH,,14 nM,,Cc1c(=O)n(-c2cnn(C)c2)cc2c(N[C@H](C)c3cccc(C(F)F)c3F)ncnc12 [I-172]
33 nM,29 % QH,24 % QH,<24 % QH,,,,Cc1nc(N[C@H](C)c2cccc(C(F)(F)F)c2C)c2cn([C@H]3C[C@](O)(C(F)(F)F)C3)c(=O)cc2n1 [I-47]
31 nM,49 % QH,<24 % QH,<24 % QH,,,,Cc1nc(N[C@H](C)c2cccc(C(C)(F)F)c2)c2cn(C34CC(F)(C3)C4)c(=O)cc2n1 [I-51]
8 nM,29 % QH,<24 % QH,<24 % QH,,,,Cc1nc(N[C@H](C)c2cccc(C(F)F)c2F)c2cn([C@H]3C[C@H](F)C3)c(=O)c(F)c2n1 [I-84]

Compound,"IC50 [1, 7]",RLM [% QH] [2],HLM [% QH] [3],MLM [% QH] [4],IC50 [5],"IC50 [1, 8]",TDI 3A4 [%] [6]
C[C@@H](Nc1ncnc2cc(=O)n(C3(C)CC3)cc12)c1cccc(C(F)(F)F)c1 [I-75],15 nM,,,,,,86%
